From patent US20240166609A1, “ANTIBACTERIAL COMPOUNDS” (BLACKSMITH MEDICINES, INC., priority 2021, published 2024) come the findings set out here.

In test [1] the test system is P. aeruginosa ATCC27835. Put plainly: Bacterial susceptibility testing, MIC by broth microdilution (CLSI). It counts as cell-based. Particulars: Pseudomonas aeruginosa, 35° C., 18-24 h, read-out: MIC (μg/mL) P. aeruginosa ATCC27835. The protocol:
(§1) Minimal inhibitory concentrations (MIC) were determined by the broth microdilution method in accordance with the Clinical and Laboratory Standards Institute (CLSI) guidelines. In brief, organism suspensions were adjusted to a final inoculum between 3×10^5 and 7×10^5 colony-forming units (CFU)/mL. Drug dilutions and inocula were made in sterile, cation adjusted Mueller-Hinton Broth (Beckton Dickinson). In wells, an inoculum volume of 100 μL was mixed to 2 μL of DMSO with 2-fold serial dilutions of drug. All inoculated microdilution trays were incubated in ambient air at 35° C. for 18-24 h. Following incubation, the lowest concentration of the drug that prevented visible growth (OD600 nm<0.05) was recorded as the MIC. Performance of the assay was monitored by the use of laboratory quality-control strains and compounds with defined MIC spectrum, in accordance with CLSI guidelines
(In general: Dilution methods test growth across graded concentrations, often in twofold steps.)

For test [2], the system named is K. pneumoniae ATCC13883. Described as above. It counts as cell-based. Particulars: Klebsiella pneumoniae, 35° C., 18-24 h, read-out: MIC (μg/mL) K. pneumoniae ATCC13883. The protocol:
as §1

Test [3] concerns P. aeruginosa 209 PAO1. The test is described as above. It counts as cell-based. Particulars: Pseudomonas aeruginosa, 35° C., 18-24 h, read-out: MIC (μg/mL) P. aeruginosa 209 PAO1. The method, then:
as §1

Test [4] addresses K. pneumoniae LpxC (Klebsiella pneumoniae subsp. pneumoniae, UniProt A6T4N9). Put plainly: LpxC Binding Assay (Rapid Fire MS assay). It counts as biochemical.
In test [5] the target is T1, P. aeruginosa LpxC (Pseudomonas aeruginosa, UniProt P47205).
T1 sequence (P47205 1-303): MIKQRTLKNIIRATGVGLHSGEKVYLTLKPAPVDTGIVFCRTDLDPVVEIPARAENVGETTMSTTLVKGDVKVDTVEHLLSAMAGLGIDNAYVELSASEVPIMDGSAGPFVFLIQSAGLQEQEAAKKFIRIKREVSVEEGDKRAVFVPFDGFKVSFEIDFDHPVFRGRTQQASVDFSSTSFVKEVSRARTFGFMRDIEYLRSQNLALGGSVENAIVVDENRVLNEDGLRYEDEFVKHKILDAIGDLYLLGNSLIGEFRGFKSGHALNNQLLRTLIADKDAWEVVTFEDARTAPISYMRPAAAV
The test can be described thus: LpxC Binding Assay (Rapid Fire MS assay). It counts as biochemical. The protocol: (§2) IC50 values against E. coli and P. aeruginosa LpxC are determined using a Rapid Fire MS assay as previously described J. Med. Chem. 2012, 55, 1662-1670.

The target of test [6] is T2, E. coli LpxC (Escherichia coli, UniProt P0A725).
T2 sequence (P0A725 1-305): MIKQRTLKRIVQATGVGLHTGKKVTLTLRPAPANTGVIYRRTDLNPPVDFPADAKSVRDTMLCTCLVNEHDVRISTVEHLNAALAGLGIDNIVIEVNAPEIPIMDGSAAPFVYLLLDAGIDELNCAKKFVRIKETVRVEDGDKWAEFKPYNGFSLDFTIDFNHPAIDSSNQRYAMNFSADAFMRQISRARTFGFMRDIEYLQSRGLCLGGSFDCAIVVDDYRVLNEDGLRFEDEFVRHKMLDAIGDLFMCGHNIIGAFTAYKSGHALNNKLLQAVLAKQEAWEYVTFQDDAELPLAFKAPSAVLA
Put plainly: LpxC Binding Assay (Rapid Fire MS assay). It counts as biochemical. The protocol: as §2

Test [7] relates to E. coli ATCC25922. Put plainly: Bacterial susceptibility testing, MIC by broth microdilution (CLSI). It counts as cell-based. Particulars: Escherichia coli, 35° C., 18-24 h, read-out: MIC (μg/mL) E. coli ATCC25922. The protocol:
as §1

Values after ≈ are worked out from the molar mass of the structure shown.

Chain of K. pneumoniae LpxC (A6T4N9 whole entry): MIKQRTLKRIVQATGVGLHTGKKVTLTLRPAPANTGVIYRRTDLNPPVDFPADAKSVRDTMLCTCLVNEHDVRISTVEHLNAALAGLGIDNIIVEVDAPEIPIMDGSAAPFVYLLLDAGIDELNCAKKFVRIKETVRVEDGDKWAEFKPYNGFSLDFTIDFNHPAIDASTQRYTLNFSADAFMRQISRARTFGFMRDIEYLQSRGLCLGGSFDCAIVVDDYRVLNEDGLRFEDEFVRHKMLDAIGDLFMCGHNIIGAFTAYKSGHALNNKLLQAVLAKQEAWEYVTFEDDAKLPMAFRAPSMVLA

With `C[C@H](O)c1nccn1[C@@H](C#Cc1ccc(-c2ccc(O[C@H]3COC[C@@H]3N)cc2)cc1)CO` (relative stereo) [Compound 15, (S)-4-(4′-(((trans)-4-aminotetrahydrofuran-3-yl)oxy)-[1,1′-biphenyl]-4-yl)-2-(2-((S)-1-hydroxyethyl)-1H-imidazol-1-yl)but-3-yn-1-ol], the MIC came out at 2 µg/mL (≈ 4.61 µM) in test [1], 1 µg/mL (≈ 2.31 µM) in test [2] and 0.5 µg/mL (≈ 1.15 µM) in test [3]. The figures for the IC50 in test [4], in test [5] and in test [6] were 1.6 nM, 9.8 nM and 1 nM, respectively.

`C[C@H](O)c1nccn1CC#Cc1ccc(-c2ccc(C3CC(NC4COC4)C3)cc2)cc1` (stereo partly drawn) [Compound 20, (S)-1-(1-(3-(4′-(3-(oxetan-3-ylamino)cyclobutyl)-[1,1′-biphenyl]-4-yl)prop-2-yn-1-yl)-1H-imidazol-2-yl)ethan-1-ol]: the MIC came out at 4 µg/mL (≈ 9.36 µM) in test [1], 0.5 µg/mL (≈ 1.17 µM) in test [2] and 4 µg/mL (≈ 9.36 µM) in test [3]. Further, the IC50 in test [4] was 0.7 nM; in test [5], 11.8 nM; in test [6], less than 0.5 nM.

Consider `C[C@H](O)c1nccn1[C@@H](C#Cc1ccc(-c2ccc(OCC(O)CCCO)cc2)cc1)CO` (stereo partly drawn) [Compound 23, 5-((4′-((S)-4-hydroxy-3-(2-((S)-1-hydroxyethyl)-1H-imidazol-1-yl)but-1-yn-1-yl)-[1,1′-biphenyl]-4-yl)oxy)pentane-1,4-diol], for which the MIC in test [1], in test [2] and in test [3] was 2 µg/mL (≈ 4.44 µM) in each case. Moreover, the IC50 in test [4] stood at 1 nM; in test [5], 7.8 nM; in test [6], 0.5 nM.

For `C[C@H](O)c1nccn1[C@@H](C#Cc1ccc(-c2ccc(OCC(C)(O)CO)cc2)cc1)CO` (mixture of isomers) [Compound 16, 3-((4′-((S)-4-hydroxy-3-(2-((S)-1-hydroxyethyl)-1H-imidazol-1-yl)but-1-yn-1-yl)-[1,1′-biphenyl]-4-yl)oxy)-2-methylpropane-1,2-diol], the MIC is 4 µg/mL (≈ 9.16 µM) in test [1], 4 µg/mL (≈ 9.16 µM) in test [2] and 2 µg/mL (≈ 4.58 µM) in test [3]. The IC50 in test [4] is 2.2 nM; in test [5], 8.3 nM; in test [6] it was 1.3 nM.

Take `C[C@H](O)c1nccn1CC#Cc1ccc(-c2ccc(C3CC(NCCO)C3)cc2)cc1` (stereo partly drawn) [Compound 19, (S)-2-((3-(4′-(3-(2-(1-hydroxyethyl)-1H-imidazol-1-yl)prop-1-yn-1-yl)-[1,1′-biphenyl]-4-yl)cyclobutyl)amino)ethan-1-ol]: the MIC is 4 µg/mL (≈ 9.63 µM) in test [1], 1 µg/mL (≈ 2.41 µM) in test [2] and 4 µg/mL (≈ 9.63 µM) in test [3]. Besides, the figures for the IC50 in test [4], in test [5] and in test [6] were 0.7 nM, 15.9 nM and less than 0.5 nM, respectively.

Turning to `C[C@H](O)c1nccn1[C@@H](C#Cc1ccc(-c2ccc(OCCC(O)CO)cc2)cc1)CO` (mixture of isomers) [Compound 17, 4-((4′-((S)-4-hydroxy-3-(2-((S)-1-hydroxyethyl)-1H-imidazol-1-yl)but-1-yn-1-yl)-[1,1′-biphenyl]-4-yl)oxy)butane-1,2-diol], the MIC in test [1] turned out to be 2 µg/mL (≈ 4.58 µM); in test [2], 2 µg/mL (≈ 4.58 µM); in test [3], 1 µg/mL (≈ 2.29 µM). Moreover, the figures for the IC50 in test [4], in test [5] and in test [6] were 1 nM, 6.6 nM and 0.5 nM, respectively.

As to `C[C@H](O)c1nccn1[C@@H](C#Cc1ccc(-c2ccc(O[C@@H]3C[C@H]3NCCF)cc2)cc1)CO` (racemic) [Compound 12, (S)-4-(4′-((trans)-2-((2-fluoroethyl)amino)cyclopropoxy)-[1,1′-biphenyl]-4-yl)-2-(2-((S)-1-hydroxyethyl)-1H-imidazol-1-yl)but-3-yn-1-ol], the MIC in test [1] is 4 µg/mL (≈ 8.9 µM); in test [2], 2 µg/mL (≈ 4.45 µM); in test [3], 2 µg/mL (≈ 4.45 µM). Besides, the results for the IC50 in test [4], in test [5] and in test [6] were 1.1 nM, 6 nM and less than 0.5 nM, respectively.

In the case of `C[C@H](O)c1nccn1[C@@H](C#Cc1ccc(-c2ccc(C[C@@H]3COC[C@H]3O)cc2)cc1)CO` [Compound 41, (3S,4R)-4-((4′-((S)-4-hydroxy-3-(2-((S)-1-hydroxyethyl)-1H-imidazol-1-yl)but-1-yn-1-yl)-[1,1′-biphenyl]-4-yl)methyl)tetrahydrofuran-3-ol], the MIC in test [1] was found to be 2 µg/mL (≈ 4.62 µM); in test [2] it was 2 µg/mL (≈ 4.62 µM); in test [7], 0.5 µg/mL (≈ 1.16 µM); in test [3], 4 µg/mL (≈ 9.25 µM).

`C[C@H](O)c1nccn1[C@@H](C#Cc1ccc(-c2ccc(C(O)CO)cc2)cc1)CO` (mixture of isomers) [Compound 5, 1-(4′-((S)-4-hydroxy-3-(2-((S)-1-hydroxyethyl)-1H-imidazol-1-yl)but-1-yn-1-yl)-[1,1′-biphenyl]-4-yl)ethane-1,2-diol]: the MIC in test [1] amounted to 4 µg/mL (≈ 10.2 µM); in test [2], 16 µg/mL (≈ 40.8 µM); in test [7], 8 µg/mL (≈ 20.4 µM); in test [3], 4 µg/mL (≈ 10.2 µM).

`C[C@H](O)c1nccn1[C@@H](C#Cc1ccc(-c2ccc(C3CC(NCc4noc(C(N)=O)n4)C3)cc2)cc1)CO` (stereo partly drawn) [Compound 35, 3-(((3-(4′-((S)-4-hydroxy-3-(2-((S)-1-hydroxyethyl)-1H-imidazol-1-yl)but-1-yn-1-yl)-[1,1′-biphenyl]-4-yl)cyclobutyl)amino)methyl)-1,2,4-oxadiazole-5-carboxamide]: the MIC in test [1] was 4 µg/mL (≈ 7.6 µM); in test [2], 2 µg/mL (≈ 3.8 µM); in test [7], 0.5 µg/mL (≈ 0.949 µM); in test [3] it was 4 µg/mL (≈ 7.6 µM).

As to `C[C@H](O)c1nccn1[C@@H](C#Cc1ccc(-c2ccc(C3CC(NCC(F)(F)CO)C3)cc2)cc1)CO` (stereo partly drawn) [Compound 34, (S)-4-(4′-(3-((2,2-difluoro-3-hydroxypropyl)amino)cyclobutyl)-[1,1′-biphenyl]-4-yl)-2-(2-((S)-1-hydroxyethyl)-1H-imidazol-1-yl)but-3-yn-1-ol], the MIC in test [1] was 4 µg/mL (≈ 8.07 µM); in test [2], 2 µg/mL (≈ 4.04 µM); in test [7], 0.5 µg/mL (≈ 1.01 µM); in test [3] it was 2 µg/mL (≈ 4.04 µM).

For the compound `C[C@H](O)c1nccn1CC#Cc1ccc(-c2ccc(OCC(N)CO)cc2)cc1` (mixture of isomers) [Compound 7, 2-amino-3-((4′-(3-(2-((S)-1-hydroxyethyl)-1H-imidazol-1-yl)prop-1-yn-1-yl)-[1,1′-biphenyl]-4-yl)oxy)propan-1-ol], the MIC is 2 µg/mL (≈ 5.11 µM) in test [1], 4 µg/mL (≈ 10.2 µM) in test [2], 2 µg/mL (≈ 5.11 µM) in test [7] and 2 µg/mL (≈ 5.11 µM) in test [3]. Further, the IC50 is 25.5 nM in test [5] and 13.6 nM in test [6].

In the case of `C[C@H](O)c1nccn1[C@@H](C#Cc1ccc(-c2ccc(O[C@@H]3COC[C@H]3O)cc2)cc1)CCO` [Compound 43, (3R,4R)-4-((4′-((R)-5-hydroxy-3-(2-((S)-1-hydroxyethyl)-1H-imidazol-1-yl)pent-1-yn-1-yl)-[1,1′-biphenyl]-4-yl)oxy)tetrahydrofuran-3-ol], the MIC in test [1] came to 2 µg/mL (≈ 4.46 µM); in test [2], 2 µg/mL (≈ 4.46 µM); in test [7], 1 µg/mL (≈ 2.23 µM); in test [3] it was 4 µg/mL (≈ 8.92 µM).

Turning to `C[C@H](O)c1nccn1[C@@H](C#Cc1ccc(-c2ccc(C3CC(NC(=O)CC#N)C3)cc2)cc1)CO` (stereo partly drawn) [Compound 40, 2-cyano-N-(3-(4′-((S)-4-hydroxy-3-(2-((S)-1-hydroxyethyl)-1H-imidazol-1-yl)but-1-yn-1-yl)-[1,1′-biphenyl]-4-yl)cyclobutyl)acetamide], the MIC in test [1] stood at 2 µg/mL (≈ 4.27 µM); in test [2], 2 µg/mL (≈ 4.27 µM); in test [7], 0.5 µg/mL (≈ 1.07 µM); in test [3], 4 µg/mL (≈ 8.54 µM).

`C[C@H](O)c1nccn1[C@@H](C#Cc1ccc(-c2ccc(C3CC(NC4C(O)OC(CO)C(O)C4O)C3)cc2)cc1)CO` (stereo partly drawn) [Compound 39, 3-((3-(4′-((S)-4-hydroxy-3-(2-((S)-1-hydroxyethyl)-1H-imidazol-1-yl)but-1-yn-1-yl)-[1,1′-biphenyl]-4-yl)cyclobutyl)amino)-6-(hydroxymethyl)tetrahydro-2H-pyran-2,4,5-triol]: the MIC turned out to be 8 µg/mL (≈ 14.2 µM) in test [1], 32 µg/mL (≈ 56.8 µM) in test [2], 8 µg/mL (≈ 14.2 µM) in test [7] and 4 µg/mL (≈ 7.1 µM) in test [3].

A word on the IC50: it is the concentration that inhibits the measured activity by half.
